Laboratory results reported in patent US8633251B2, “Derivatives of aminoalkanols, method of obtaining of aminoalkanols and their use” (Uniwersytet Jagiellonski, priority 2008, dated 2014).

Key:
Format in all cases: in vivo
[1] = test system: maximal electroshock seizures; assay: Maximum Electroshock Seizure (MES) test, mice; details: mice; for MES, No. of protected animals/No. of used animals: time 0.5 h
Summary of the method: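 Mice received compound in methylcellulose i.p. or p.o. at 30, 100 and 300 mg/kg, with some tests at 10 and 3 mg/kg. At 0.5 or 4 h, after tetracaine eye-drops, current was delivered through corneal electrodes (60 Hz, 0.2 s, 50 mA). Groups were one mouse at 30 and 300 mg/kg and three at 100 mg/kg.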

[2] = test system: maximal electroshock seizures; assay: Maximum Electroshock Seizure (MES) test, rats; details: 0.25 h
Method: In order to define anticonvulsant activity, screening tests were performed, using animal models of seizures. […] The tests were based on administration of a compound to an animal and after certain time inducing state similar to epilepsy attack in human. Each substance (after dissolving in methylcellulose) was normally tested in doses 30, 100, and 300 mg/kg body weight (b.w.) (mice) or in 30 and 50 mg/kg b.w. (rats) in two possible routes of administration: intraperitoneal (i.p.) or oral (p.o.). […] […] (mice) the tests were also performed in doses 10 and 3 mg/kg b.w.
Maximum Electroshock Seizure (MES) test is an electric test, verifying activity towards generalized tonic-clonic seizures (grand mal epilepsy). […] Its procedure consists in administration to an animal a mentioned dose, […] (after anesthetic eye-drops: 0.5% tetracaine hydrochloride in 0.9% NaCl) and turning on electric current (60 Hz, 0.2 s, 50 mA (mice) or 150 mA (rats)). […]

neurotoxicity (rotarod) = assay: Neurotoxicity test (TOX), rotarod, mice; details: mice, time 0.5 h
[3] = test system: seizures induced by sound; assay: Sound-induced seizures, Frings mice; details: mice
Method: (§1) For some compounds, a test for proconvulsant activity was performed (TTE test), as well as a test on activity in focal seizures (related with limbic system, 6 Hz test, hippocampal kindling). […] A test on inhibiting seizures induced by sound (Frings mice) was performed for compounds 12 and 26-28. Electrophysiology tests also have been performed, for seizures induced by bicuculline, picrotoxin, and NMDA. Prevention of (pilocarpine induced) status epilepticus has been noticed.

[4] = test system: seizures induced by bicuculline; assay: Bicuculline (BIC) induced seizures
Method: as §1

[5] = test system: seizures induced by picrotoxin; assay: Picrotoxin (PIC) induced seizures
Method: as §1

[6] = test system: formalin-induced pain (acute/neuropathic and inflammatory phase); assay: Formalin test, mice; details: 21 mg/kg b.w.
Method: The test was performed with use of formaldehyde as a substance causing pain (neuropathic and inflammatory afterwards) in mice, which were injected formalin into a hind limb.
During the first 10 min. after administration the mouse is licking the hind limb (acute phase), afterwards there is a short break in behavior change, and then the mouse licks its limb again for another 20-30 min. (inflammatory phase) (FIG. 3 for 12 and FIG. 4 for 26). The acute phase represents direct affection on the peripheral nerve and the inflammatory phase is related with secretion of inflammation mediators from the damaged tissue and nerves. The described model tests effectiveness of a substance to inhibit acute and chronic excessive neuronal discharges in response to peripheral nerves activation.

[7] = test system: LTG-resistant amygdala seizures; assay: Lamotrigine-resistant amygdala kindling, rats; details: t=0.25 h, i.p.

In the case of CCC(CO)NCCOc1c(C)cccc1Cl (stereo not drawn) [Compound 26, R,S-2N-[(2-chlor-6-methylphenoxy)ethyl]amino-1-butanol], the “MES, No. of protected animals/No. of used animals” value ([1]; dose 10 mg/kg b.w.) is reported as 2/4, the “MES, No. of protected animals/No. of used animals” value ([1]; dose 30 mg/kg b.w.) is reported as 1/1 and the “MES, No. of protected animals/No. of used animals” value ([1]; dose 100 mg/kg b.w.) is reported as 1/1. For the same compound, the “ED50 (MES, mice, i.p., 0.25 h)” value ([1]; i.p., 0.25 h) was 21.44 mg/kg b.w, the “ED50 (MES, rats, i.p., 0.25 h)” value ([2]; i.p.) was 7.3 mg/kg b.w and the “ED50 (MES, rats, p.o., 0.25 h)” value ([2]; p.o.) was 67.69 mg/kg b.w. The “TOX, No. of animals exhibiting motor impairment/no. of used animals” value (neurotoxicity (rotarod); dose 100 mg/kg b.w.) was 8/8, the “TOX, No. of animals exhibiting motor impairment/no. of used animals” value (neurotoxicity (rotarod); dose 300 mg/kg b.w.) was 4/4 and the “ED50 (sound induced seizures, mice, 0.25 h)” value [3] was 6.05 mg/kg b.w. The “ED50 (BIC, 0.25 h)” value [4] was greater than 70 mg/kg b.w, the “ED50 (PIC, 0.25 h)” value [5] was greater than 70 mg/kg b.w and the “neuropathic pain inhibition (formalin test)” value [6] was 36%. The “acute phase of the formalin test” value ([6]; mice, i.p., first ca. 10 min. after formalin, p<0.01) was 64 % of control, the “inflammatory phase of the formalin test” value ([6]; mice, i.p., not statistically significant) was 72 % of control and the “effective dose (LTG-resistant amygdala seizures)” value [7] was 15 mg/kg b.w.
